Reference: patent publication US12351574B2, “Selective ligands for modulation of GIRK channels” (Northeastern University, priority 2018, dated 2025)

Target: T1, GIRK1/4(V-I) (Homo sapiens, UniProt P48544+P48549, V92I)
T1 construct: expressed in transfected cells; host or cells: Xenopus laevis oocytes (cRNA injection)
T1 sequence (P48549 1-501): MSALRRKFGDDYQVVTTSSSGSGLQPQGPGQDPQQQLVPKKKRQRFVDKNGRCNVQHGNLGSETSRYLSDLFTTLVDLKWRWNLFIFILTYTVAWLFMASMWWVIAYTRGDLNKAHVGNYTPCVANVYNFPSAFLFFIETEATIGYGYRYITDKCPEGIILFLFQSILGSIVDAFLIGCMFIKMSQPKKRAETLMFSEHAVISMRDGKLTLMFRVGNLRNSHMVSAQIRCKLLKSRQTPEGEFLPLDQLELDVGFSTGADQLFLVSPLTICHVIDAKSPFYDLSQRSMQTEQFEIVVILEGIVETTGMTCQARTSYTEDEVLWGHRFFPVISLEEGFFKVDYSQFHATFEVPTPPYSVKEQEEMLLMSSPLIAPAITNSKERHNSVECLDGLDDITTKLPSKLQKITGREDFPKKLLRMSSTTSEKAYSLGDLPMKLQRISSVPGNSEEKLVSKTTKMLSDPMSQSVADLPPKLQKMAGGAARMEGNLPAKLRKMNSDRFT
T1 sequence (P48544 1-419 V92I): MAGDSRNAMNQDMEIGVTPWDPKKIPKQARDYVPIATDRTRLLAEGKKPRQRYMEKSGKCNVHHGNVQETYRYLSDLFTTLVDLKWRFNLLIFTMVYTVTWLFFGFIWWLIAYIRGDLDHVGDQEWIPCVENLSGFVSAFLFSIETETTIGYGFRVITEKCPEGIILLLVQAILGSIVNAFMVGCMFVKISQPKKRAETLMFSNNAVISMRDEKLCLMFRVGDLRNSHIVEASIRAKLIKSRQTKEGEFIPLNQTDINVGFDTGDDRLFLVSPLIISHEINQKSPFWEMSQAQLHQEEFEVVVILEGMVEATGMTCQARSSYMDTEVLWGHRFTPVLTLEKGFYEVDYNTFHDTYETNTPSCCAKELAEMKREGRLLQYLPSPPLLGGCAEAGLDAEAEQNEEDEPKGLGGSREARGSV
Assay: TEVC in Xenopus oocytes, single mutant GIRK1/4(V-I)
Format: cell-based
Conditions: GIRK1/4(V-I) single mutant
Text: Molecular biology: For Xenopus oocyte expression, human GIRK1 and human GIRK4 cDNAs were subcloned into pGEMHE. For mammalian expression, human GIRK1 and human GIRK4 cDNAs were subcloned into pcDNA3 and pcDNA3.1/V5-His B, respectively (Invitrogen). Mouse GIRK2 cDNA was subcloned in the dual-function vector, pXoom. Point mutations were introduced using a standard Pfu-based mutagenesis technique according to the QuikChange protocol (Agilent). Mutations were verified by sequencing.
Electrophysiology of oocytes: Whole-oocyte currents were measured by conventional two-electrode voltage clamp (TEVC) with a GeneClamp 500 amplifier (Axon Instruments). Agarose cushion microelectrodes were filled with 1.5% (w/v) agarose in 3 M KCl and were used with resistances between 0.1 and 1.5 megaohms. […] Barium-sensitive basal currents from both groups, 1) Vehicle, 2) single concentration at 10 μM and 3) multiple concentrations of ML297 or GAT compounds in the presence of HK solution, were assessed at −80 mV using TEVC. Barium-sensitive currents were normalized to average basal current in the vehicle solutions. The HK solution contained the following: 96 mM KCl, 1 mM NaCl, 1 mM MgCl2, 5 mM KOH/HEPES, pH 7.4. The barium solution consisted of HK+10 mM BaCl2. Five to ten oocytes from the same batch (same frog) were recorded for each group, and the experiments were repeated in at least four batches. Data acquisition and analysis were carried out using pClamp9 (Molecular Devices) and OriginPro (Microcal) software.
To test these computational predictions, the inventors mutated each or both of the two M1 key wild-type GIRK4 subunit residues to the corresponding GIRK2 residues (GIRK4-V92I, GIRK4-T94V, GIRK4-V92I/T94V or GIRK4-dm) and vice-versa the GIRK2 residues to the corresponding GIRK4 ones (GIRK2-I97V, GIRK2-V99T, GIRK2-I97V/V99T or GIRK2-dm) (FIG. 35). […]

`Cc1cc(NC(=O)Nc2ccc(Br)s2)n(-c2ccccc2)n1` [GAT1508, 1-(5-bromothiophen-2-yl)-3-(3-methyl-1-phenyl-1H-pyrazol-5-yl)urea] was tested, and the EC50 was 530 ± 150 nM, the EMAX was 1.29±0.03 and the Emax (read-out: EMAX, % of the control GIRK1/2) was 11%.
